Experiments:
Format in all cases: in vivo, Sprague Dawley rats
[1] = tested on: rats with bilateral 6-OHDA lesions of the NTS; test: BP and HR recording and survival in rats with 6-OHDA lesions of the NTS (rat model mimicking fatal EV 71 encephalitis); settings: for survival time after NTS lesion: n=6, 6-OHDA rats died within 7 hours
Text: (§1) Three sets of experiments were designed according to the three specific aims mentioned above. The first set of experiments was to establish a rat model by micro-injecting 6-hydroxydopamin (6-OHDA) into NTS leading to acute fulminating hypertension and pulmonary hemorrhagic edema. We recorded the blood pressure (BP) and heart rate (HR) in trend. Two groups of rats (n=6 in each group) were studied: 1) an intervention group in which 6-OHDA (Sigma, […]) dissolved in vehicle (0.8% ascorbic acid in saline) was injected into NTS bilaterally; and 2) a control group that received injections of equal volumes of vehicle alone. Each group of rats was anesthetized with urethane (1 g/kg, i.p.) and connected to oscillator circuits for BP and HR recording via […]. For microinjections into the NTS, the rats were anesthetized and placed in a stereotaxic frame; then the dorsal surface of the medulla was exposed. A glass cannula was filled with L-glutamate (0.154 mmol/60 n1) to functionally identify the NTS.
(§2) The third set of experiments (intervention-treatment and control-treatment groups) was to infuse the ganglionic blocker (hexamethonium (Sigma), 25 mg/kg, iv) via the femoral vein at the time point of 10 minutes after NTS lesion to record BP and HR in trend (n=6 in each group) and the rats respectively were sacrificed at the time point (0, 3, 6 and 12 hours) for analyzing the parameters as discussed in the second set of experiments.

[2] = tested on: control rats with NTS microinjected with vehicle; test: BP and HR recording in control-treatment group (vehicle injected into NTS, then hexamethonium); settings: no 6-OHDA lesion; hexamethonium 25 mg/kg iv
Text: as §1, with “NTS. […]” for “NTS.”

[3] = tested on: rats with bilateral 6-OHDA lesions of the NTS; test: Epinephrine and norepinephrine levels by enzyme immunoassay in rats with 6-OHDA lesions
Experimental: as §2
All blood samples were collected into micro-tubes and placed immediately into to an ice bath. The samples, then, were centrifuged at 10000 rpm for 20 minutes at 4° C. Aliquots of plasma were removed and stored at −80° C. until assayed for content of epinephrine and norepinephrine within four weeks utilizing enzyme immunoassay for the high-sensitive quantitative determination by Labor Diagnostika Nord-Medicrop Inc.

[4] = tested on: rats with bilateral 6-OHDA lesions of the NTS; test: Echocardiography in rats with 6-OHDA lesions
Experimental: After the first set of the rat model was established, the second set of experiments intended to determine some time points for analysis. Rats were anesthetized with pentobarbital (50 mg/kg, ip) before NTS lesion. After surgery (lesion of the NTS), the wounds were closed and the rats were removed from the stereotaxic frame for further observation. Each rat was placed in a small cage and woken within 30 minutes for free activity. The rat were respectively sacrificed (intervention and control group, n=6 in each group) at different time point (0, 3 and 6 hours) for analyzing histopathology and biochemistry from blood, brain, heart and lung. Before sacrificing, echocardiography was performed to exanimate left ventricular (LV) wall thickness and cardiac function.
as §2
Rats were immobilized and shaved on the chest for echocardiographic examinations using commercially available equipment (Vivid 7, GE Ultrasound, Horten, Norway) equipped with 10-MHz phased array transducers. All the records were stored digitally as two-dimensional cine loops and analyzed with customized dedicated research software (Echo PAC, GE Ultrasound, Horten, Norway). Two-dimensionally guided M-mode recordings were obtained from the parasternal short-axis view at a depth of 2 cm at the level of the papillary muscles. M-Mode tracing were recorded at a speed of 200 mm/s. The measurements were made using the method of the American Society of Echocardiography and the parameters were measured digitally on the M-mode tracing and averaged from 5 consecutive cardiac cycles.

[5] = tested on: rats with bilateral 6-OHDA lesions of the NTS; test: Heart histopathology and immunohistochemistry (H&E, troponin T, BNP, connexin 43) in rats with 6-OHDA lesions
Experimental: as §2
(§3) For hematoxylin and eosin staining, the rat brain, heart, and lungs were excised immediately after blood sampling. They were rinsed with saline, free from blood or fatty tissue, lightly blotted with filter paper, and then were placed in 10% formalin for five days and blocked, embedded in paraffin, cut in 4 μm sections, and stained with hematoxylin and eosin.
(§4) Immunohistochemical analysis (troponin T and brain natriuretic peptide in heart tissue, neutrophil cell in lung tissue, and connexin 43 assays in the lung and heart tissues) was performed on the sections after the paraffin was melted in an oven at 70° C. for one hour. The sections were deparaffinized, microwaved in citric buffer (10 mmol/L, pH 6.0), blocked in 3% goat serum, and incubated with anti-cardiac troponin T antibody (1:200; Abeam), anti-myosin VIIa antibody (1:200; Abeam), anti-brain natriuretic peptide polyclonal antibody (1:1000; Thermo Fisher Scientific Inc.), anti-neutrophil elastase antibody (1:400; Abeam), and anti-connexin 43/GJA1 antibody (1:200; Abcam) overnight at 4° C. Next, the sections were incubated with biotinylated secondary antibodies (1:200; Vector Laboratories, Burlingame, Calif., USA) for one hour and in AB complex (1:100) for 30 minutes at room temperature. The sections were visualized with a DAB substrate kit (Vector Laboratories) and counterstained with hematoxylin. The sections were then photographed with a microscope mounted with a charge-coupled device camera.

[6] = tested on: rats with bilateral 6-OHDA lesions of the NTS; test: Pulmonary edema index and gross lung specimens in rats with 6-OHDA lesions; settings: n=6 per group
Experimental: as §2
After the blood-sampled rats were sacrificed, the chest each of the rats was opened to remove the lung and the heart, and then the skull was opened for NTS tissue. To estimate the liquid accumulation in the lungs, both lungs were weighted, then dried in an oven at 80° C. for two days and weighted as dry lung weight. The total weight/body multiplies by 100 and wet-to-dry lung weight ratio were calculated for indicating the degree of pulmonary edema.

[7] = tested on: rats with bilateral 6-OHDA lesions of the NTS; test: Lung histopathology and immunohistochemistry (H&E, PMN, connexin 43) in rats with 6-OHDA lesions; settings: n=6 per group
Experimental: as §2, §3, §4

C[N+](C)(C)CCCCCC[N+](C)(C)C [hexamethonium]
HR at 3 hours ([1]; 25 mg/kg iv 10 minutes after 6-OHDA lesion, 3 hours): no significant reduction in HR
HR immediately after hexamethonium ([1]; 25 mg/kg iv 10 minutes after 6-OHDA lesion, immediately): a reduction in HR
acute hypertension induced by 6-OHDA lesions ([1]; hexamethonium 25 mg/kg iv 10 minutes after NTS lesion, FIG. 1B): reversed
acute high rise in mean blood pressure (MBP) caused by 6-OHDA lesions ([1]; hexamethonium 25 mg/kg iv 10 minutes after NTS lesion, FIG. 1C, n=6 per group): significantly reversed
survival time after NTS lesion ([1]; hexamethonium 25 mg/kg iv 10 minutes after NTS lesion): at least 14 hours
survival time after NTS lesion ([1]; hexamethonium 25 mg/kg iv 10 minutes after NTS lesion, listed as Hexamethonium): more than 14 hours
labored breathing ([1]; hexamethonium 25 mg/kg iv 10 minutes after NTS lesion, up to 14 hours post NTS lesion): did not exhibit significantly labored breathing until 14 hours
HR in control-treatment group [2]: no associated significant change in HR
mean blood pressure in control-treatment group [2]: significantly decreased
level of epinephrine at 6 hours, 6-OHDA vs 6-OHDA+Hexamethonium ([3]; 6 hours): no significant differences
level of norepinephrine at 6 hours, 6-OHDA vs 6-OHDA+Hexamethonium ([3]; 6 hours): no significant differences
acute high rise of epinephrine serum level post 6-OHDA lesions ([3]; within 3 hours after hexamethonium treatment, FIG. 1D, n=6 per group): significantly lowered
acute high rise of norepinephrine serum level post 6-OHDA lesions ([3]; within 3 hours after hexamethonium treatment, FIG. 1E, n=6 per group): significantly lowered
acute increase in fraction shortening ([4]; 3 hours): attenuated or reversed
decrease in the LV internal dimension in diastole and systole ([4]; 3 hours and 6 hours): reversed or attenuated
acute decrease in cardiac output after 6-OHDA lesions ([4]; 3 hours and 6 hours, FIG. 2E): prevented
acute increase in ejection fraction ([4]; 3 hours, FIG. 2F): attenuated or reversed
acute increase in LV wall thickness ([4]; 3 hours, FIGS. 2G and 2H): attenuated or reversed
increase of irregular wavy fibers with increased eosinophilic staining of the cytoplasm and contraction bands necrosis in heart (H&E) ([5]; 3 hours and 6 hours, FIG. 3A, n=6 per group): prevented
increased BNP staining in the cytoplasm (heart) ([5]; 3 hours and 6 hours, FIG. 3C, n=6 per group): reduced
increased and strong expressions of connexin 43 in heart muscle ([5]; 3 hours and 6 hours, FIG. 3D, n=6 per group): reduced
increased expression of cardiac troponin T ([5]; 6 hours, FIGS. 3B and 3E, n=4 per group): reduced
mild and severe lung congestion (gross lungs) ([6]; 3 hours and 6 hours, FIG. 4A): prevented
increased wet-to-dry lung weight ratio (W/D) ([6]; 6 hours, FIG. 4B): reversed
increased total lung/body weight (BW) ([6]; 6 hours, FIG. 4C): reversed
increased infiltrates of red blood cells and formation of hyaline membrane in lung (H&E) ([7]; 3 hours and 6 hours, FIG. 5A): prevented
increased expressions of connexin 43 in lung ([7]; 3 hours and 6 hours, FIG. 5C): attenuated
increased infiltrates of PMN in lung ([7]; 6 hours, FIG. 5B): reduced

— patent publication US20150094376A1, “Hexamethonium Reverses the Lethal Cardiopulmonary Damages in a Rat Model of Brain Stem Lesions Mimicking Fatal Enterovirus 71 Encephalitis” (Kaohsiung Veterans General Hospital, priority 2013, published 2015)
